# Test results taken from patent publication US20100041089A1, “IMPROVED METHOD FOR DETECTING CHEMICAL […]” (priority 2006, published 2010).
# Test system: yeast genes (expressed mRNA)
# Assay: DNA chip measurement of expressed mRNA of yeast genes after culture with a toxic chemical substance
# Format: cell-based, Saccharomyces cerevisiae S288C
# Details: for level of expressed mRNA in the presence of chemical substance / level in the absence of chemical substance: cultured two hours with the chemical substance; for The level of expressed mRNA in the presence of chemical substance/The level of expressed mRNA in the absence of chemical substance: cultured two hours with substance
# Method: Yeast (Saccharomyces cerevisiae S288C (a SUC2mal mel gap2 CUP1)) were cultured at 25° C. on YPD medium (yeast extract 1%, polypeptone 2%, glucose 2%). One of toxic chemical substances was added to the cell at logarithmic growth phase, and the cell was further cultured for two hours. Cell was cultured without any chemical substance in the same condition, and was used as a control. Concentrations of the chemical substances were defined to inhibit the growth of the yeast but not lead to death.
# After the completion of cultivation, the culture was centrifuged to collect the cells. To the cells, sodium acetate buffer (50 mM sodium acetate, 10 mM EDTA, 1% SDS) was added, and the mixture was shaken at 65° C. for five minutes, followed by returning to room temperature, and obtaining the supernatant, which procedure was repeated two times. To the supernatant, ½ amount of a solution of phenol/chloroform (1:1) was added, and the mixture was centrifuged to give a supernatant, an equal amount of chloroform was added, and the mixture was centrifuged to give a supernatant. To the supernatant, an equal amount of isopropanol containing 0.3 M sodium acetate was added, and the mixture was allowed to stand at room temperature for 30 minutes, after which the mixture was centrifuged to give sediment of the whole RNAs. Seventy % ethanol was added to the sediment, and the mixture was again centrifuged to give sediment, which was then dried and dissolved in water. mRNA was isolated from the whole RNAs as followings. In view of the fact that a poly A chain is attached to the 3′ terminus of mRNA, a polynucleotide having a poly T structure which was immobilized on the surface of latex beads was used to trap the mRNA, and then the mRNA was washed and eluted with spine column (Oligotex-dT30<Super>mRNA Purification Kit, Takara). Reverse transcription of the mRNA was conducted with a reverse transcriptase (Super Script II Reverse Transcriptase; catalogue No. 18064-014, GibcoBRL) using fluorescence-labeled nucleotides to give cDNAs that were introduced with Cy3-dUTP or Cy5-dUTP during the reverse transcription.
# The labeled cDNAs were dissolved in TE buffer (10 mM Tris-HCl/1 mM EDTA, pH 8.0), and the solution was dropped on the DNA chip containing the whole genes of yeast (DNA Chip Research Inc. Japan) so that the cDNAs were hybridized on the DNA chip at 65° C. for over 12 hours. The fluoresces intensity of the DNA chip was read with a scanner, and the ratio relative to the fluorescence intensity resulting from the absence of chemical substance was estimated as the following, which is shown in Tables 1 to 9.
# In the Tables, “Intensity” indicated in the rightmost column is a value of the level of expressed mRNA of each gene in control cells as divided by the average level of the expressions of the whole genes. A gene of which mRNA level is lower in control, and is higher in cases of addition of chemical substance, is especially useful in the detection of toxic substances.
# Here, when a ratio of an amount of mRNA expressed in the presence of the chemical substance to an amount of mRNA expressed in the absence of the chemical substance is two or more, then it is considered significant.
compound,measurement,setting,value
"Cl[C@H]1[C@H](Cl)[C@@H](Cl)[C@@H](Cl)[C@H](Cl)[C@H]1Cl [(7), γ-Hexachlorocyclohexane]",level of expressed mRNA in the presence of chemical substance / level in the absence of chemical substance,yeast gene YNL058C,0.7
same,level of expressed mRNA in the presence of chemical substance / level in the absence of chemical substance,yeast gene YNL063W,1.4
same,The level of expressed mRNA in the presence of chemical substance/The level of expressed mRNA in the absence of chemical substance,yeast gene YNL074C,1.1
same,The level of expressed mRNA in the presence of chemical substance/The level of expressed mRNA in the absence of chemical substance,yeast gene YNL092W,1.6
same,The level of expressed mRNA in the presence of chemical substance/The level of expressed mRNA in the absence of chemical substance,yeast gene YNL115C,2.4
same,The level of expressed mRNA in the presence of chemical substance/The level of expressed mRNA in the absence of chemical substance,yeast gene YNL156C,1.9
same,level of expressed mRNA in the presence of chemical substance / level in the absence of chemical substance,yeast gene YNL176C,0.7
same,level of expressed mRNA in the presence of chemical substance / level in the absence of chemical substance,yeast gene YNL194C,1.5
same,level of expressed mRNA in the presence of chemical substance / level in the absence of chemical substance,yeast gene YNL200C,1.2
same,The level of expressed mRNA in the presence of chemical substance/The level of expressed mRNA in the absence of chemical substance,yeast gene YNL234W,1.2
same,level of expressed mRNA in the presence of chemical substance / level in the absence of chemical substance,yeast gene YNL253W,1.3
same,level of expressed mRNA in the presence of chemical substance / level in the absence of chemical substance,yeast gene YNL276C,0.9
same,The level of expressed mRNA in the presence of chemical substance/The level of expressed mRNA in the absence of chemical substance,yeast gene YNL281W,1.2
same,The level of expressed mRNA in the presence of chemical substance/The level of expressed mRNA in the absence of chemical substance,yeast gene YNL305C,1.7
same,level of expressed mRNA in the presence of chemical substance / level in the absence of chemical substance,yeast gene YNR051C,1.3
same,The level of expressed mRNA in the presence of chemical substance/The level of expressed mRNA in the absence of chemical substance,yeast gene YNR068C,1.8
same,level of expressed mRNA in the presence of chemical substance / level in the absence of chemical substance,yeast gene YOL026C,1.8
same,The level of expressed mRNA in the presence of chemical substance/The level of expressed mRNA in the absence of chemical substance,yeast gene YOL032W,1.4
same,The level of expressed mRNA in the presence of chemical substance/The level of expressed mRNA in the absence of chemical substance,yeast gene YOL036W,1.0
same,The level of expressed mRNA in the presence of chemical substance/The level of expressed mRNA in the absence of chemical substance,yeast gene YOL047C,1.3
same,The level of expressed mRNA in the presence of chemical substance/The level of expressed mRNA in the absence of chemical substance,yeast gene YOL071W,2.0
same,The level of expressed mRNA in the presence of chemical substance/The level of expressed mRNA in the absence of chemical substance,yeast gene YOL082W,2.5
same,The level of expressed mRNA in the presence of chemical substance/The level of expressed mRNA in the absence of chemical substance,yeast gene YOL083W,3.1
same,The level of expressed mRNA in the presence of chemical substance/The level of expressed mRNA in the absence of chemical substance,yeast gene YOL117W,1.6
same,The level of expressed mRNA in the presence of chemical substance/The level of expressed mRNA in the absence of chemical substance,yeast gene YOL131W,1.3
same,The level of expressed mRNA in the presence of chemical substance/The level of expressed mRNA in the absence of chemical substance,yeast gene YOL150C,2.4
same,The level of expressed mRNA in the presence of chemical substance/The level of expressed mRNA in the absence of chemical substance,yeast gene YOL162W,2.0
same,The level of expressed mRNA in the presence of chemical substance/The level of expressed mRNA in the absence of chemical substance,yeast gene YOR019W,2.8
same,level of expressed mRNA in the presence of chemical substance / level in the absence of chemical substance,yeast gene YOR022C,1.6
same,level of expressed mRNA in the presence of chemical substance / level in the absence of chemical substance,yeast gene YOR087W,0.9
same,level of expressed mRNA in the presence of chemical substance / level in the absence of chemical substance,yeast gene YOR138C,1.1
same,The level of expressed mRNA in the presence of chemical substance/The level of expressed mRNA in the absence of chemical substance,yeast gene YOR197W,0.9
same,level of expressed mRNA in the presence of chemical substance / level in the absence of chemical substance,yeast gene YOR253W,1.3
same,level of expressed mRNA in the presence of chemical substance / level in the absence of chemical substance,yeast gene YOR267C,0.9
same,level of expressed mRNA in the presence of chemical substance / level in the absence of chemical substance,yeast gene YOR325W,1.2
same,level of expressed mRNA in the presence of chemical substance / level in the absence of chemical substance,yeast gene YPL005W,2.0
same,The level of expressed mRNA in the presence of chemical substance/The level of expressed mRNA in the absence of chemical substance,yeast gene YPL087W,4.2
same,level of expressed mRNA in the presence of chemical substance / level in the absence of chemical substance,yeast gene YPL150W,1.2
same,level of expressed mRNA in the presence of chemical substance / level in the absence of chemical substance,yeast gene YPL152W,1.3
same,level of expressed mRNA in the presence of chemical substance / level in the absence of chemical substance,yeast gene YPL168W,1.2
same,level of expressed mRNA in the presence of chemical substance / level in the absence of chemical substance,yeast gene YPL180W,1.0
same,level of expressed mRNA in the presence of chemical substance / level in the absence of chemical substance,yeast gene YPL188W,1.3
same,The level of expressed mRNA in the presence of chemical substance/The level of expressed mRNA in the absence of chemical substance,yeast gene YPL196W,2.4
same,The level of expressed mRNA in the presence of chemical substance/The level of expressed mRNA in the absence of chemical substance,yeast gene YPL206C,1.2
same,level of expressed mRNA in the presence of chemical substance / level in the absence of chemical substance,yeast gene YPL221W,1.3
same,The level of expressed mRNA in the presence of chemical substance/The level of expressed mRNA in the absence of chemical substance,yeast gene YPL222W,1.1
same,level of expressed mRNA in the presence of chemical substance / level in the absence of chemical substance,yeast gene YPL225W,1.7
same,The level of expressed mRNA in the presence of chemical substance/The level of expressed mRNA in the absence of chemical substance,yeast gene YPR023C,1.2
same,level of expressed mRNA in the presence of chemical substance / level in the absence of chemical substance,yeast gene YPR049C,1.1
same,level of expressed mRNA in the presence of chemical substance / level in the absence of chemical substance,yeast gene YPR146C,1.0
same,level of expressed mRNA in the presence of chemical substance / level in the absence of chemical substance,yeast gene YPR148C,1.6
same,The level of expressed mRNA in the presence of chemical substance/The level of expressed mRNA in the absence of chemical substance,yeast gene YPR151C,4.4
same,level of expressed mRNA in the presence of chemical substance / level in the absence of chemical substance,yeast gene YPR172W,1.2
